This assay has as its target T1, human factor Xa (Homo sapiens, UniProt P00742).
T1 construct: purchased Enzyme Research Laboratories
Kind of assay: Factor Xa chromogenic peptide substrate (S-2222) assay. The class given is biochemical. The note with it: human factor Xa 3 nM, chromogenic substrate S-2222, pH 7.8, room temperature; apparent Ki from IC50 by Cheng-Prusoff. As to the method:
Factor Xa activity was measured spectrophotometrically in microtiter plates in a final volume of 150 μl using the following conditions: Inhibition of human factor Xa (Enzyme Research Laboratories) was tested at an enzyme concentration of 3 nM using the chromogenic substrate S-2222 (Chromogenix AB, Mölndal, Sweden) at […]. The reaction kinetics of the enzyme and the substrate were linear with both time and the enzyme concentration. The inhibitors were dissolved in DMSO and tested at various concentrations up to 100 μM. The inhibitors were diluted using HNPT buffer consisting of HEPES100 mM, NaCl 140 mM, PEG 6000 0.1% and Tween 80 0.02%, pH 7.8. The cleavage of S-2222 by human factor Xa was followed at 405 nm for 5 minutes at room temperature. The velocity of the reaction was determined by the autoreader from the slope of the linear regression fit to 7 time points (1 minute). The initial velocity for each inhibitor concentration was determined by the slope of at least 4 time points in the linear phase by a linear regression fit […]. Apparent dissociation constants Ki were calculated according to Cheng and Prusoff [Cheng, Y. C.; Prusoff, W. H. Relationship between the inhibition constant (Ki) and the concentration of the inhibitor that causes 50 percent inhibition (IC50) of an enzyme reaction. Biochem. Pharmacol. 1973, 22, 3099-3108.] based on the IC50 and the respective Km, determined previously (Ki=IC50/(1+S/Km)). The Km for the substrate used was determined under the conditions of the test with at least 5 substrate concentrations ranging from 0.5 to 15 times Km. [Lottenberg R, Hall J A, Blinder M, Binder E P, Jackson C M., The action of thrombin on peptide p-nitroanilide substrates. Substrate selectivity and examination of hydrolysis under different reaction conditions. Biochim Biophys Acta. 1983 Feb. 15; 742(3):539-57]. According to Eadie [Eadie G. S. The inhibition of cholinesterase by physostigmine and prostigmine. J. Biol. Chem. 1942, 146, 85-93.], the Km for S-2222 amounted to 613 μM.
T1 sequence (P00742 235-488 limits assumed): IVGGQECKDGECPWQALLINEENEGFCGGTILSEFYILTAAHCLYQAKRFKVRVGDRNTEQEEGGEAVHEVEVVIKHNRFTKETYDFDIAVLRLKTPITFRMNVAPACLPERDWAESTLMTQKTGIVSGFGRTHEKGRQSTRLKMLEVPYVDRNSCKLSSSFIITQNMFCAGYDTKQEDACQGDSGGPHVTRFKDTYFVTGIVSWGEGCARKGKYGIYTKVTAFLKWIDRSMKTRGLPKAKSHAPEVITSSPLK
T1 sequence (P00742 41-179 partner limits assumed): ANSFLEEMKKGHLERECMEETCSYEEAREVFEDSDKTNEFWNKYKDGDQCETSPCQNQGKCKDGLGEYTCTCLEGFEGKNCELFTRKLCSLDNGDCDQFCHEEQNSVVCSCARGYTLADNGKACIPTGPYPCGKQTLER
As to `O=C(Nc1ccc(-n2ccccc2=O)cc1)C1c2ccccc2CN1C(=O)Nc1ccc(Cl)cc1` (stereo in doubt) [Example 4, (S)-1,3-Dihydro-isoindole-1,2-dicarboxylic acid 2-[(4-chloro-phenyl)-amide]1-{[4-(2-oxo-2H-pyridin-1-yl)-phenyl]-amide}], the Ki was found to be 2 nM.

For the molecule `O=C(Nc1ccc(-n2ccccc2=O)cc1F)[C@H]1Cc2ccccc2CN1C(=O)Nc1ccc(Cl)cc1` [Example 25, (R)-3,4-Dihydro-1H-isoquinoline-2,3-dicarboxylic acid 2-[(4-chloro-phenyl)-amide]3-{[2-fluoro-4-(2-oxo-2H-pyridin-1-yl)-phenyl]-amide}], the Ki was found to be 2 nM.

Turning to `O=C(NCC1CN(C(=O)Nc2ccc(-n3ccccc3=O)cc2F)c2cccc(Cl)c21)c1ccc(Cl)s1` (stereo not drawn) [Example 44, 4-Chloro-3-{[(5-chloro-thiophene-2-carbonyl)-amino]-methyl}-2,3-dihydro-indole-1-carboxylic acid [2-fluoro-4-(2-oxo-2H-pyridin-1-yl)-phenyl]-amide], the Ki was 2 nM.

(Values after patent publication US20120122854A1, “Carbocyclic Fused Cyclic Amines” (priority 2005, published 2012).)
